Test results as given in patent publication US8557746B2, “High throughput screens for small-molecule inhibitors of the nuclear receptor-like pathway regulating multidrug resistance in fungi” (The General Hospital Corporation, priority 2009, dated 2013).
Entries after “also recorded” stand apart in the source; their conditions may differ.

Legend:
S. cerevisiae gal11Δ = assay: Drug sensitivity assay on agar, S. cerevisiae GAL11 deletion strain; type: cell-based; settings: growth on YPD agar with increasing drug concentration
Experimental: (§1) Fresh S. cerevisiae colonies were inoculated in 5 ml of YPD or SD selection medium, and grown overnight at 30° C. The cells were diluted to an OD600 of 0.2, and 2 μl were spotted on agar-based solid medium containing an increasing gradient of drugs (for example, ketoconazole, cycloheximide, or 4-NQO) in the agar. The plates were incubated at 30° C. for 2-3 days. Susceptibility of the C. glabrata mutants was tested by spotting serial dilutions of cells onto YPD agar plates supplemented with fluconazole or ketoconazole. The yeast strains were grown overnight at 30° C. in YPD liquid medium. Cells were diluted to an OD600 of 2.0 in PBS, and 4 μl of the cell suspension and tenfold serial dilutions of the cells were spotted onto plates. Growth was assessed after 1 day of incubation at 30° C.

PDR5 gene = assay: Xenobiotic-induced transcription of Pdr1p/Pdr3p target genes by quantitative real-time RT-PCR; type: cell-based; settings: S. cerevisiae, Pdr1p/Pdr3p-dependent, 20 min drug treatment
Experimental: Yeast cultures were grown overnight with agitation in YPD at 30° C. The next day, cells were pelleted and washed twice with sterilized purified water (Millipore). Cells were then resuspended in 1% yeast extract and 2% peptone (YP) to an optical density (OD600) of 0.8, grown for another 16 hr at 30° C., then treated with different drugs for 20 min for quantitative RT-PCR, or 5 hr for β-galactosidase assay.
Total RNA was extracted from 5 ml of yeast culture using the Qiagen RNeasy MiniKit. Two micrograms of total RNA was used to generate cDNA using the First-Strand cDNA Synthesis Kit (GE Healthcare). The cDNA mix was diluted tenfold, and 2 μl was used for real-time quantitative PCR with SYBR Green (Applied Biosystems) on an ABI Prism 7900HT Sequence Detection System (Applied Biosystems).

Myc6-Pdr1p = biological target: T1, Myc6-Pdr1p (Saccharomyces cerevisiae, UniProt P12383); assay: Drug-binding and cold competition assay with 3H-ketoconazole; design: species or system S. cerevisiae; settings: for competition of binding of radiolabelled ketoconazole to Pdr1p by unlabelled xenobiotic: unlabelled xenobiotic at 1,000-fold excess of KET
T1 construct: N-terminal Myc-tagged full-length wild-type Pdr1p (Myc6-Pdr1pwt); made in house; host or cells: yeast (S. cerevisiae), immunopurified with anti-Myc 9E10 on Protein A/G beads
T1 sequence (P12383 whole entry): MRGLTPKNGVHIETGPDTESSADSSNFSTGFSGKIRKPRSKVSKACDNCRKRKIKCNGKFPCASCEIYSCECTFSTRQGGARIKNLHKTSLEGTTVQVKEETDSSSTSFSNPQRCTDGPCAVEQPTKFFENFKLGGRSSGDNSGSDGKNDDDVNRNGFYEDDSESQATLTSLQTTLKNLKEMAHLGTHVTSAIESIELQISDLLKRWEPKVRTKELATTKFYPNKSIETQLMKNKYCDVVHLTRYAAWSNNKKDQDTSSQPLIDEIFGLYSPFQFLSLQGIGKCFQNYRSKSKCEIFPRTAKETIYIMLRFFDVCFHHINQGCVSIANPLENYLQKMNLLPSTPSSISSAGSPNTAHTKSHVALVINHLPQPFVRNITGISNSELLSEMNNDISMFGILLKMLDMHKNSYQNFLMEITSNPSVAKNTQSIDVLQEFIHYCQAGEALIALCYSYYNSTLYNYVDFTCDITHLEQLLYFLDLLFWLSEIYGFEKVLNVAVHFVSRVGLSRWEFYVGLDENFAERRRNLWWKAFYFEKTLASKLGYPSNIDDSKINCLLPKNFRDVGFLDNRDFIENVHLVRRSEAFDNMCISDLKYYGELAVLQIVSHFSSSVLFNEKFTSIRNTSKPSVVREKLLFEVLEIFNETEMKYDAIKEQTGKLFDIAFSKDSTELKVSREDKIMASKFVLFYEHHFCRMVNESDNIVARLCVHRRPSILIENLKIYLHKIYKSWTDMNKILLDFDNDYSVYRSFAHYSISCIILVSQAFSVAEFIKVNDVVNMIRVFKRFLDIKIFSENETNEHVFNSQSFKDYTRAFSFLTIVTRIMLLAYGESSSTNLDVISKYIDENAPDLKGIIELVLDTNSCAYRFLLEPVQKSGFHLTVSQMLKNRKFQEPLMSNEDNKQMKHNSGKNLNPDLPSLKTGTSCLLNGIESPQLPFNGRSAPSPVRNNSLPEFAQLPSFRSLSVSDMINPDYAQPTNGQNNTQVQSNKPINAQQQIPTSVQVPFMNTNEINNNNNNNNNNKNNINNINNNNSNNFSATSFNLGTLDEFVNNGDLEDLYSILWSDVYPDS
Experimental: (§2) For co-immunoprecipitation, yeast cells were transformed with Myc6-Pdr1pwt and Gal11p-Flag2 (or Gal11pAKIX-Flag2). Cells were washed with 1×PBS after overnight culture in YPD medium, and then cultured in YP for another 24 hr. Cells were then treated with different concentrations of ketoconazole and cycloheximide (or ethanol for vehicle controls) for 1 hr. Yeast cell lysates were extracted in immunoprecipitation buffer (50 mM Tris-HCI, pH 8.0, 140 mM NaCl, 0.1 mM EDTA, 10% glycerol, 0.02% NP-40, 1 mM DTT, 0.25 mM PMSF, 1 mM benzamidine, 0.5 mgml^−1 aprotinin and Protease Inhibitor Cocktail (Complete, Roche)), with or without xenobiotics by vortexing in the presence of glass beads. The Flag-tagged proteins were then immunoprecipitated by adding anti-Flag M2 antibody-beads (Sigma) and incubating for 3 hr with mutating at 4 C. After washing five times with 1 ml of 0.25 M KCl IP buffer, bound proteins were eluted with 0.1 mgml^−1 Flag peptide (Sigma). Xenobiotics at the indicated concentrations were present at all steps of the co-immunoprecipitation, including washing. Immunoblotting was performed according to standard protocols. To immunopurify Myc6-Pdr1pwt or HA-Pdr1pwt, yeast whole-cell extract (in immunoprecipitation buffer) was incubated with anti-Myc (9E10) antibody or anti-HA (F-7) antibody, and a 50% mix of Protein A- and G-Sepharose beads (Amersham) at 4° C. for 3 hr. Beads were washed with IP buffer five times, and used for drug-binding experiments as outlined herein.
Xenobiotic-binding experiments were performed essentially as described (Kapinsky & Lasar, 435 Nature 446-51 (2005)), with some modifications as explained herein. Radiolabelled ketoconazole (KET: [^3H]G), specific radioactivity 10 Ci mmol^−1, was purchased from American Radiolabelled Chemicals. Beads with either immunopurified proteins or GST recombinant proteins were incubated with KET ([^3H]G) in drug-binding buffer (10 mM K2HPO4, 10 mM KH2PO4, pH 7.0, 2 mM EDTA, 50 mM NaCl, 1 mM DTT, 0.5 mM CHAPS, 10% glycerol and protease inhibitors) at 4° C. for 3 hr with mixing in a volume of 500 μl. […]

C. glabrata Cggal11AΔ = assay: Drug sensitivity growth assay, C. glabrata CgGAL11A deletion strain; type: cell-based; settings: growth assays on YPD plates
Experimental: as §1

C. glabrata = assay: C. elegans liquid killing assay; type: in vivo; settings: fluconazole 8 μg/ml; for survival of nematodes infected with wild-type C. glabrata under antifungal treatment: six-day experiment
Experimental: The C. glabrata strains and lawns were grown and prepared as described previously. Breger, 3 PloS Pathogens, el8 (2007). The liquid medium killing assays were conducted as detailed in Breger, 2007, with a few changes. After the glp-4;sek-I worms were incubated at 25° C. for 2 days, they were washed off the nematode growth medium plates with M9 and transferred to C. glabrata lawns formed on Brain-Heart Infusion broth (Difco) agar plates. The worms were incubated on the lawns for 4 hr at 25° C., then washed off the plates with M9 buffer and allowed to crawl on unneeded Brain-Heart Infusion broth plates to remove yeast cells from their cuticles. Approximately 70-80 worms were then picked to wells in a six-well microtiter dish that contained 2 ml of liquid medium of 79% M9 buffer, 20% Brain-Heart Infusion broth, 10 μgml^−1 cholesterol in ethanol, and 90 μgml^−1 kanamycin, with the addition of 0.25% DMSO or 8 μgml^−1 fluconazole. The plates were incubated at 25° C. overnight and then examined at 24 hr intervals for survival. […] P values were calculated based on the entire six-day experiment with the log rank and Wilcoxon tests performed by STATA 6 statistical software (Stata, College Station, Tex.).

CgPdr1p = assay: Binding of 3H-ketoconazole to immunopurified CgPdr1p; design: species or system C. glabrata; settings: immunopurified Myc6-CgPdr1p on beads
Experimental: as §2, with “Immunoblotting was performed according to standard protocols. To immunopurify Myc6-Pdr1pwt or HA-Pdr1pwt, yeast whole-cell extract (in immunoprecipitation buffer) was incubated with anti-Myc (9E10) antibody or anti-HA (F-7) antibody, and a 50% mix of Protein A- and G-Sepharose beads (Amersham) at 4° C. for 3 hr. Beads were washed with IP buffer five times, and used for drug-binding experiments as outlined herein.” left out
Xenobiotic-binding experiments were performed essentially as described (Kapinsky & Lasar, 435 Nature 446-51 (2005)), with some modifications as explained herein. Radiolabelled ketoconazole (KET: [^3H]G), specific radioactivity 10 Ci mmol^−1, was purchased from American Radiolabelled Chemicals. […]

[1] = system: S. cerevisiae wild-type cells; assay: High throughput cell viability screen (OD600) with or without ketoconazole; type: cell-based; settings: OD600, two-fold dilutions from 30 μg/mL, with ketoconazole
Experimental: Briefly, S. cerevisiae or C. glabrata wild-type cells are grown to exponential growth phase and added to 384-well plates. Each well contains rich media with either (a) drug of interest or (b) drug of interest with ketoconazole. Serial 2-fold dilutions of compounds are tested to determine concentration-dependent effects upon cell viability. Cells are incubated at 30° C. and optical density (OD600) is measured to determine cell growth. Plates are set up in duplicate and compounds are scored for their ability to inhibit cell growth in the presence or absence of ketoconazole. For S. cerevisiae screening, wild-type inoculum cultures were grown in YPD (1% yeast extract, 2% bacto-peptone, 2% dextrose) at 30° C., 200 rpm overnight. On day 2, these cultures were expanded to log-phase growth in the morning (OD600˜0.500). On day 3, compounds of interest were added to 25 μL of YPD or YPD+10 μM ketoconazole at an initial concentration of 30 μg/mL and set up as 5 two-fold serial dilutions. Log-phase wild-type cultures with an OD600˜0.500 were diluted to an OD600 of 0.005 and added at an equal volume (25 μL) of wild-type cells to wells with compounds +/− ketoconazole. Initial OD600 values were read with a Perkin Elmer EnVision and plates incubated in a moist chamber at 30° C. OD600 was read at 24 hr, 48 hr, 72 hr and 96 hr. […]

O=[N+]([O-])c1cc[n+]([O-])c2ccccc12 [4-nitroquinoline oxide]
sensitivity of GAL11 deletion strain to toxin/xenobiotic (S. cerevisiae gal11Δ): striking sensitivity

C[C@@H]1C[C@@H]([C@H](O)CC2CC(=O)NC(=O)C2)C(=O)[C@@H](C)C1 [cycloheximide]
induction of expression of drug efflux pump PDR5 and other Pdr1p/Pdr3p target genes (PDR5 gene): induced | sensitivity of GAL11 deletion strain to toxin/xenobiotic (S. cerevisiae gal11Δ): striking sensitivity | competition of binding of radiolabelled ketoconazole to Pdr1p by unlabelled xenobiotic (Myc6-Pdr1p): effectively competed | sensitivity of CgGAL11A deletion strain to drug (C. glabrata Cggal11AΔ): markedly increased sensitivity

CC(=O)N1CCN(c2ccc(OCC3COC(Cn4ccnc4)(c4ccc(Cl)cc4Cl)O3)cc2)CC1 (stereo not drawn) [ketoconazole]
survival of nematodes infected with wild-type C. glabrata under antifungal treatment (C. glabrata): completely resistant | induction of expression of drug efflux pump PDR5 and other Pdr1p/Pdr3p target genes (PDR5 gene): induced | sensitivity of GAL11 deletion strain to toxin/xenobiotic (S. cerevisiae gal11Δ): striking sensitivity | Kd (Myc6-Pdr1p; cold ligand competition, 0.1 μM 3H-KET, Myc6-Pdr1p, read-out: dissociation constant (KD) of binding to immunopurified Pdr1p): ~39 µM | competition of binding of radiolabelled ketoconazole to Pdr1p by unlabelled xenobiotic (Myc6-Pdr1p): effectively competed | direct binding of radiolabeled compound to CgPdr1p (CgPdr1p): binds directly | sensitivity of CgGAL11A deletion strain to drug (C. glabrata Cggal11AΔ): markedly increased sensitivity

OC(Cn1cncn1)(Cn1cncn1)c1ccc(F)cc1F [fluconazole]
survival of nematodes infected with Cggal11B or Cgmed1 deletion strains in the presence of antifungal (C. glabrata; Cggal11B or Cgmed1 deletion strains): little difference in survival rates | survival of nematodes infected with Cgpdr1 and Cggal11A deletion strains in the presence of antifungal (C. glabrata): significantly increased survival | survival of nematodes infected with Cgpdr1 and Cggal11A deletion strains in the presence of antifungal (C. glabrata; listed as Fluconazole): increased the lifespan of nematodes | survival of nematodes infected with wild-type C. glabrata under antifungal treatment (C. glabrata): completely resistant; also recorded: death of most nematodes within six days | sensitivity of CgGAL11A deletion strain to drug (C. glabrata Cggal11AΔ): markedly increased sensitivity

CN(C/C=C/C#CC(C)(C)C)Cc1cccc2ccccc12 [terbinafine]
growth inhibition in the presence of ketoconazole [1]: eliminate cell growth
